The source of these data is US20240398784A1, “C-LINKED ISOQUINOLINE AMIDES AS LRRK2 INHIBITORS, PHARMACEUTICAL COMPOSITIONS, AND USES THEREOF” (Merck Sharp & Dohme LLC, priority 2021, published 2024).

The target in the test is LRRK2 G2019S (Homo sapiens, UniProt Q5S007, G2019S). As to the kind of experiment: LRRK2 G2019S Km ATP LanthaScreen assay. The following applies: read-out: LRRK2 pIC50 (converted). It counts as biochemical. Background: In TR-FRET formats the signal depends on donor and acceptor labels being close together.
LRRK2 G2019S, sequence (Q5S007 whole entry G2019S): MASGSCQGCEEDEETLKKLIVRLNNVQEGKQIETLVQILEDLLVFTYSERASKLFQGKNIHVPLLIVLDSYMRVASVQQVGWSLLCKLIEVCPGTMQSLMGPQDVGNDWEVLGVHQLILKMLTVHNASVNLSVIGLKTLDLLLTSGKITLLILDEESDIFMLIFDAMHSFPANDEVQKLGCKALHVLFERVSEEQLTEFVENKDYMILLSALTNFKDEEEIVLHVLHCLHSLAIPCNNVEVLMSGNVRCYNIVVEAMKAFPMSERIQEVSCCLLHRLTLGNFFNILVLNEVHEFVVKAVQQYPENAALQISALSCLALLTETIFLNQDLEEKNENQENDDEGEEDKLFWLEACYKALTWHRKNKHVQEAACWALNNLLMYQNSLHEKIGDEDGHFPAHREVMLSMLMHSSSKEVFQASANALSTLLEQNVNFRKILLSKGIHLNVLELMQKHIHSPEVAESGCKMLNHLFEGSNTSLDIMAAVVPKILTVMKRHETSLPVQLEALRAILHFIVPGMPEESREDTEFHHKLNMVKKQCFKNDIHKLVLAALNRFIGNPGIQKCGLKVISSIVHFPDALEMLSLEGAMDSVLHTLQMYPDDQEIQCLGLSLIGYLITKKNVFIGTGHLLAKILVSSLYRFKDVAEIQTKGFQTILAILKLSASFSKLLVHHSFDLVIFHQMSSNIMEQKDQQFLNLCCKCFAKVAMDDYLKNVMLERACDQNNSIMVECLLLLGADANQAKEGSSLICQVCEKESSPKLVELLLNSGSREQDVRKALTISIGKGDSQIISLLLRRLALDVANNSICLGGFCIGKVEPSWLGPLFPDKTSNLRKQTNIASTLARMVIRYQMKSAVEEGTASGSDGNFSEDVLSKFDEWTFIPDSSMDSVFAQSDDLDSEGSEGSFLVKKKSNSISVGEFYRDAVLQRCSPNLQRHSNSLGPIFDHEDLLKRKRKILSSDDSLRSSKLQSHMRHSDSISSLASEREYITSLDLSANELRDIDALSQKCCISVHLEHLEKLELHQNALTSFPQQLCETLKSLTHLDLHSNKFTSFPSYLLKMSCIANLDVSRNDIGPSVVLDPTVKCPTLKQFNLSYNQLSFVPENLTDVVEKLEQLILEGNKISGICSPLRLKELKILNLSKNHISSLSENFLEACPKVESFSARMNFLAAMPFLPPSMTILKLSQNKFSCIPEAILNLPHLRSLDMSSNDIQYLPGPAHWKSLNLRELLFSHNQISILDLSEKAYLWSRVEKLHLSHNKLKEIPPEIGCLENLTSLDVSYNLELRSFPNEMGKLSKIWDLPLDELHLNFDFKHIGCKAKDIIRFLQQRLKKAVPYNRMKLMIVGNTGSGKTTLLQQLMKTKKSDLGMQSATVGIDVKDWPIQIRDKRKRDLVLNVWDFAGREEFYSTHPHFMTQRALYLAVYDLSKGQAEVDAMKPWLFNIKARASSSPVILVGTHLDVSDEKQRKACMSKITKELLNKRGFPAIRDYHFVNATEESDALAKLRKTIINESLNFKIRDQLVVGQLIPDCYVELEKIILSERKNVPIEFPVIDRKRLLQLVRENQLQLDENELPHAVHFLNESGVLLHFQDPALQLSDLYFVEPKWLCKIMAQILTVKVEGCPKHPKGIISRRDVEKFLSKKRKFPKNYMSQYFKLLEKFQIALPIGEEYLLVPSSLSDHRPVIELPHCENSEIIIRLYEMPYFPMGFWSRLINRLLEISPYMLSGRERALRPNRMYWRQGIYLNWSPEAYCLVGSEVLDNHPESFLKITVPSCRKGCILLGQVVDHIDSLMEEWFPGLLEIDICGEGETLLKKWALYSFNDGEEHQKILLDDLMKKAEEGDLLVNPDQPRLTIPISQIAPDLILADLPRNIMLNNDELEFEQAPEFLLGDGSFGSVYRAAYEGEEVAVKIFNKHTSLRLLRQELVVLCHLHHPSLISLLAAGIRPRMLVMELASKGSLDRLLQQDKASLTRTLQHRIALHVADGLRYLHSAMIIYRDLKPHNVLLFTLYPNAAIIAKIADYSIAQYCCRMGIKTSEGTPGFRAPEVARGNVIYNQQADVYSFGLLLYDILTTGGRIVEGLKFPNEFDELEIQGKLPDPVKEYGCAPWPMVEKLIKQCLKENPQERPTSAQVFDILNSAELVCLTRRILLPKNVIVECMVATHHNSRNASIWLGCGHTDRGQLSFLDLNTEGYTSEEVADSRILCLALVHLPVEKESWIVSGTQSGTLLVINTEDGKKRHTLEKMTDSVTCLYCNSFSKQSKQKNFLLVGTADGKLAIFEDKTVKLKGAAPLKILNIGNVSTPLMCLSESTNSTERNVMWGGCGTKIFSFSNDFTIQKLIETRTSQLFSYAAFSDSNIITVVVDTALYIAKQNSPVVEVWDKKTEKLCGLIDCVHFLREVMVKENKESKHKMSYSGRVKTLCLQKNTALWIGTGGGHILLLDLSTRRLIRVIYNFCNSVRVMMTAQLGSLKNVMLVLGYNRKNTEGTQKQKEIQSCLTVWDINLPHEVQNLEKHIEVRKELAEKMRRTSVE
Take `CC1(C)CC(C(=O)Nc2cc3cc(C4CCC(N5CCC(F)C5)CC4)c(Cl)cc3cn2)CCO1` (single isomer, unassigned) [Ex-5.13, N-(7-chloro-6-(4-(3-fluoropyrrolidin-1-yl)cyclohexyl)isoquinolin-3-yl)-2,2-dimethyltetrahydro-2H-pyran-4-carboxamid]: the IC50 was 479 nM.
On to `CC1(C)CC(C(=O)Nc2cc3cc(C4CCC(N5CCC(F)C5)CC4)c(Cl)cc3cn2)CCO1` (single isomer, unassigned) [Ex-5.14, N-(7-chloro-6-(4-(3-fluoropyrrolidin-1-yl)cyclohexyl)isoquinolin-3-yl)-2,2-dimethyltetrahydro-2H-pyran-4-carboxamid], for which the IC50 was 38.9 nM.
In the case of `CC1(C)CC(C(=O)Nc2cc3cc(C4CCC(N5CCC(F)C5)CC4)c(Cl)cc3cn2)CCO1` (single isomer, unassigned) [Ex-5.15, N-(7-chloro-6-(4-(3-fluoropyrrolidin-1-yl)cyclohexyl)isoquinolin-3-yl)-2,2-dimethyltetrahydro-2H-pyran-4-carboxamid], the IC50 was 1.29 nM.
For the compound `CC1(C)CC(C(=O)Nc2cc3cc(C4CCC(N5CCC(F)C5)CC4)c(Cl)cc3cn2)CCO1` (single isomer, unassigned) [Ex-5.16, N-(7-chloro-6-(4-(3-fluoropyrrolidin-1-yl)cyclohexyl)isoquinolin-3-yl)-2,2-dimethyltetrahydro-2H-pyran-4-carboxamid], the IC50 is 389 nM.
In the case of `CC1(C)CCC(C(=O)Nc2cc3cc(C4CCC(N5CCC(F)C5)CC4)c(Cl)cc3cn2)CO1` (single isomer, unassigned) [Ex-5.17, N-(7-chloro-6-(4-(3-fluoropyrrolidin-1-yl)cyclohexyl)isoquinolin-3-yl)-6,6-dimethyltetrahydro-2H-pyran-3-carboxamide], the IC50 was 5.62 nM.
Consider `CC1(C)CCC(C(=O)Nc2cc3cc(C4CCC(N5CCC(F)C5)CC4)c(Cl)cc3cn2)CO1` (single isomer, unassigned) [Ex-5.18, N-(7-chloro-6-(4-(3-fluoropyrrolidin-1-yl)cyclohexyl)isoquinolin-3-yl)-6,6-dimethyltetrahydro-2H-pyran-3-carboxamide], for which the IC50 is 1020 nM.
The result for `CC1(C)CCC(C(=O)Nc2cc3cc(C4CCC(N5CCC(F)C5)CC4)c(Cl)cc3cn2)CO1` (single isomer, unassigned) [Ex-5.19, N-(7-chloro-6-(4-(3-fluoropyrrolidin-1-yl)cyclohexyl)isoquinolin-3-yl)-6,6-dimethyltetrahydro-2H-pyran-3-carboxamide] reads 2.34 nM; that for `CC1(C)CCC(C(=O)Nc2cc3cc(C4CCC(N5CCC(F)C5)CC4)c(Cl)cc3cn2)CO1` (single isomer, unassigned) [Ex-5.20, N-(7-chloro-6-(4-(3-fluoropyrrolidin-1-yl)cyclohexyl)isoquinolin-3-yl)-6,6-dimethyltetrahydro-2H-pyran-3-carboxamide], 10.5 nM.
Consider `CC1(C)CCC(C(=O)Nc2cc3cc(C4CCC(N5CCC(F)C5)CC4)c(Cl)cc3cn2)CO1` (single isomer, unassigned) [Ex-5.21, N-(7-chloro-6-(4-(3-fluoropyrrolidin-1-yl)cyclohexyl)isoquinolin-3-yl)-6,6-dimethyltetrahydro-2H-pyran-3-carboxamide], for which the IC50 is 3630 nM.
For `CC1(C)CCC(C(=O)Nc2cc3cc(C4CCC(N5CCC(F)C5)CC4)c(Cl)cc3cn2)CO1` (single isomer, unassigned) [Ex-5.22, N-(7-chloro-6-(4-(3-fluoropyrrolidin-1-yl)cyclohexyl)isoquinolin-3-yl)-6,6-dimethyltetrahydro-2H-pyran-3-carboxamide], the IC50 was 6.17 nM.
Regarding `CC1(C)CCC(C(=O)Nc2cc3cc(C4CCC(N5CCC(F)C5)CC4)c(Cl)cc3cn2)CO1` (single isomer, unassigned) [Ex-5.23, N-(7-chloro-6-(4-(3-fluoropyrrolidin-1-yl)cyclohexyl)isoquinolin-3-yl)-6,6-dimethyltetrahydro-2H-pyran-3-carboxamide], the IC50 was 3020 nM.
